Measured values: patent US9994554B2, “Barbiturate and thiobarbiturate compounds for use in cancer therapy” (NUHOPE, LLC, priority 2011, dated 2018)
Where “and” joins values, the source holds several entries; their conditions need not be identical. Equal entries are not always repeated. Where two headings read alike, the source gives them in different places. *1 amine or outer side, *2 acyl side, *3 side chain or, on linkers, in order; H or OH if unused. Where a SMILES comes first, the peptide text is derived from it. Bridges are numbered along the chain shown (N, C = ends). Roman numbers before positions name the chains, in order. [ ]: non-standard residue; d: D form. Actinocin(9to1) = Cc1c2oc3c(C)ccc(C(=O)[*:1])c3nc-2c(C(=O)[*:2])c(N)c1=O; NMeV = CN[C@H](C(=O)O)C(C)C; Sar = CNCC(=O)O

Tests used:
CCF-STTG1 [1] = assay: CCF-STTG1 resazurin cell assay (Example 14); assay type: cell-based; settings: Homo sapiens, read-out: Brain - Astrocytoma CCF-STTG1 pXC50 (converted)
Protocol: (§1) In this assay, cell lines were tested broadly using the same method as the U87 cell line assay of Example 13. NCI-H1299, CCF-STTG1 and Hep G2 cells were obtained from the ATCC. These cell lines were tested as previously described with the following modifications. NCI-H1299, CCF-STTG1 were maintained in RPMI-1640 Medium plus 10% fetal bovine serum and 1% penicillin/streptomycin, while Hep G2 cells were maintained in Eagle's Minimum Essential Medium plus 10% fetal bovine serum and 1% penicillin/streptomycin. Cells were plated at a density of 1×10^4 per ml except CFF-STTG1 cells which were seeded at a density of 2.5×10^4 per ml.

NCI-H1299 = NCI-H1299 resazurin cell assay (Example 14); assay type: cell-based; settings: Homo sapiens, read-out: Lung - Non small cell lung carcinoma NCI-H1299 pXC50 (converted)
Protocol: as §1

U87-MG cells = assay: U87-MG resazurin cell assay (Example 13); assay type: cell-based; settings: Homo sapiens, U-87 MG
Protocol: U87-MG cells were obtained from the ATCC, LGC Standards (#HTB-14). The cells were screened for mycoplasma (Mycoplasma Experience) and maintained in Biowhittaker Alpha MEM (Lonza #BE02-002F+10% dialyzed US FBS serum (Invitrogen #26400-044), 1% Penstrep (Gibco #15140-122).
Compounds to be tested were transferred into column 1 of a hit plate (96-well PPV Greiner #651201). 20 ul of DMSO was added to columns 2 to 11. The top concentration was 10 mM.
Serial dilution, ten-point one in three dilution curves were created using Perkin Elmer Janus (20 ul clear Robopack disposable tips #6000677 used).
2 ul of each of the compounds was transferred by pre-dispensing into black, clear bottom 96-well CellBIND Corning plates (Fisher #DPS-184-030R) using Platemate 2×2 (ThermoFisher Darts #5506).
200 μl of U87-MG cells were added to columns 1 to 11 at a density of 1000 cells per ml, and media only was dispensed into control column 12 using Wellmate (Small bore tubing set #201-30002).
After 5 days (120 hrs) incubation at 37° C. under 5% CO2 in a humidified incubator, the assay was “stopped” by addition of Resazurin sodium salt at 0.5 mM final concentration (Sigma R7017). The plates were incubated for a further 4 hrs before resorufin readout was taken from a Perkin Elmer EnVision, 550 nm excitation (photo550, Barcode 312), 580 nm emission (M580, Barcode 233), Top Mirror BODIPY (D555, Barcode 405).

Hep G2 = Hep G2 resazurin cell assay (Example 14); assay type: cell-based; settings: Homo sapiens, HepG2; read-out: Liver - Hepatocellular carcinoma Hep G2 pXC50 (converted)
Protocol: as §1

U87-MG = assay: cells; settings: Homo sapiens, U-87 MG, read-out: IC50 (μM) U87-MG
Protocol: (§2) Human neuroblastoma cell lines were cultured in Dulbecco's Modified Eagle Medium (DMEM)/F12 media. Human glioma cells were ordered from American Type Culture Collection (ATCC, Manassas, Va.), and maintained in DMEM with 4×10^−3M L-glutamine, 100 U/ml penicillin, 100 μg/ml streptomycin, and 10% fetal bovine serum (FBS). All experiments were performed at 37° C. in 5% CO2 atmosphere under cell culture conditions. Prior to γ-radiation or exposure to chemotherapeutic agents, the glioma cells were plated at a density of 156 to 8,000 cells per well in 96 well plates to account for differences in growth rates, and to obtain similar cell densities for the experimental manipulations, and cultured overnight. Then cells received different dosages of γ-radiation from a ^60Co source GammaCell 220 (Nordion International Inc, Ontario, Canada) or chemotherapeutic agents for another 2-6 days. Cell cytotoxicity assay was determined by MTS [3-(4,5-dimethylthiazol-2-yl)-5-(3-carboxymethoxyphenyl)-2-(4-sulfophenyl)-2H-tetrazolium, inner salt] Cell Proliferation Assay (Promega, Madison, Wis.) or sulforhodamine B (SRB) assay at the end of the exposure period (47, 48).
(§3) Chemotype moiety compounds of CC-I were also tested on the Temodar-resistant CCF-STTG1 and Temodar®-sensitive U87-MG cell lines. The glioma cell culture and treatment is as described above.
(§4) The human glioma CCF-STTG1 cell lines were plated at a density of 5,000 cells per well in 96 well plates under standard DMEM cell culture conditions and then exposed to different concentrations of CC-I, merbarone, or ICRF-193 for 5 days. Merbarone and ICRF-193 are both topoisomerase II inhibitors (55, 56).

CCF-STTG1 [2] = assay: cells; settings: for IC50: Homo sapiens, CCF-STTG1, read-out: IC50 (μM) CCF-STTG1
Protocol: as §2
Temodar®-resistant cell lines were used to screen for compounds having the ability to decelerate the growth of, or kill, Temodar®-resistant cells. The efficacy of over 15,000 different compounds in the Drug Discovery Core at Pennsylvania State Hershey Medical Center was tested on Temodar®-resistant human neuroblastoma SH-SY5Y and human glioma CCF-STTG1 cell lines with a colorimetric cytotoxicity assay, the sulforhodamine B (SRB) assay (53).
as §3, §4

SW1088 = assay: Cytotoxicity (MTS or SRB assay), SW1088; assay type: cell-based, human
Protocol: Human glioma cells were ordered from American Type Culture Collection (ATCC, Manassas, Va.), and maintained in DMEM with 4×10^−3M L-glutamine, 100 U/ml penicillin, 100 μg/ml streptomycin, and 10% fetal bovine serum (FBS). All experiments were performed at 37° C. in 5% CO2 atmosphere under cell culture conditions. […] Then cells received different dosages of γ-radiation from a ^60Co source GammaCell 220 (Nordion International Inc, Ontario, Canada) or chemotherapeutic agents for another 2-6 days. Cell cytotoxicity assay was determined by MTS [3-(4,5-dimethylthiazol-2-yl)-5-(3-carboxymethoxyphenyl)-2-(4-sulfophenyl)-2H-tetrazolium, inner salt] Cell Proliferation Assay (Promega, Madison, Wis.) or sulforhodamine B (SRB) assay at the end of the exposure period (47, 48).

MCF10A = assay: Cytotoxicity, MCF10A; assay type: cell-based, human; settings: Homo sapiens, MCF-10A; immortalized, non-transformed mammary epithelial cell line
MCF7 = assay: Cytotoxicity, MCF7; assay type: cell-based; settings: MCF7; human breast adenocarcinoma cell line
Protocol: (§5) Human neuroblastoma cell lines were cultured in Dulbecco's Modified Eagle Medium (DMEM)/F12 media. Human glioma cells were ordered from American Type Culture Collection (ATCC, Manassas, Va.), and maintained in DMEM with 4×10^−3M L-glutamine, 100 U/ml penicillin, 100 μg/ml streptomycin, and 10% fetal bovine serum (FBS). All experiments were performed at 37° C. in 5% CO2 atmosphere under cell culture conditions. Prior to γ-radiation or exposure to chemotherapeutic agents, the glioma cells were plated at a density of 156 to 8,000 cells per well in 96 well plates to account for differences in growth rates, and to obtain similar cell densities for the experimental manipulations, and cultured overnight. […] Cell cytotoxicity assay was determined by MTS [3-(4,5-dimethylthiazol-2-yl)-5-(3-carboxymethoxyphenyl)-2-(4-sulfophenyl)-2H-tetrazolium, inner salt] Cell Proliferation Assay (Promega, Madison, Wis.) or sulforhodamine B (SRB) assay at the end of the exposure period (47, 48).

OVCAR-3 = assay: Cytotoxicity, ovarian cancer cells; assay type: cell-based; settings: OVCAR-3; human ovarian carcinoma cell line
Protocol: To assess the effect of CC-I on the ovarian cancer cells, the cells were cultured overnight at a density of 5,000 to 10,000 cells per well in 96 well plates. Then the cells were treated with different concentrations of CC-I (Formula IV) or Formula V for another 3-6 days before cytotoxicity assay using MTS or SRB assay. The IC50 or LD50, 50% inhibition or lethal dose, of compounds is also determined using statistical software (GraphPad) as a general indicator of toxicity.

U251 = assay: Cytotoxicity (MTS or SRB assay), U251; assay type: cell-based; settings: U-251; human astrocytoma or glioblastoma cell line
Protocol: as §5

SVGp12 = assay: Cytotoxicity, SVGp12; assay type: cell-based; settings: SVGp12; SV40 transformed human astrocyte cell line
Protocol: as §5

WT/SH-SY5Y = assay: Cytotoxicity, WT/SH-SY5Y neuroblastoma; assay type: cell-based; settings: wild type HFE transfected human neuroblastoma SH-SY5Y
Protocol: as §5

C282Y/SH-SY5Y = assay: cells; assay type: cell-based; settings: C282Y HFE transfected human neuroblastoma SH-SY5Y
Protocol: as §5

CCF-STTG1 cells = assay: FITC-Annexin V/propidium iodide apoptosis assay; assay type: cell-based, human; settings: CCF-STTG1, at 0.05 μg/ml (39.8 nM)
Protocol: An FITC-labeled Annexin V/propidium iodide apoptosis assay kit (Molecular Probes) was used to determine whether CC-I induces apoptosis in an astrocytoma cell line. […] The percentage of apoptotic cells by the CC-I treatment in CCF-STTG1 cells is from 10.9±0.16% at 5 pig/ml ([…]) to 48.7±0.33% at 10 μg/ml (36.2 μM). By comparison, the positive control, actinomycin D, induced apoptosis in 47.8±0.04% of the cells at 0.05 μg/ml (39.8 nM).

[3] = U87-MG, 5 days (120 hrs) incubation, read-out: Activity Score (Mean pXC50) (converted)
[4] = read-out: Brain - Glioblastoma U87 pXC50 (converted)

Structure (SMILES)	IC50 (CCF-STTG1 [1]) [µM]	IC50 (NCI-H1299) [µM]	IC50 (U87-MG cells; [3]) [µM]	IC50 (U87-MG cells; [4]) [µM]	IC50 (Hep G2) [µM]	other results
CCN1C(=O)C(=C/C=C/c2ccco2)C(=O)N(CC)C1=O [DDD00124802]	31.6 to 100	1 to 10	10 to 31.6	31.6 to 100	10 to 31.6	
O=C1NC(=S)NC(=O)C1=C/C=C/c1ccco1 [DDD00124818]	10 to 31.6	1 to 10	10 to 31.6	10 to 31.6	> 100	
CCN1C(=O)NC(=O)/C(=C\C=C\c2ccccc2)C1=O [DDD00124809]	1 to 10		1 to 10	1 to 10	1 to 10	
O=C1NC(=S)NC(=O)C1=C/C=C/c1ccccc1 [Formula V]						IC50 (U87-MG): 1.8 µM; IC50 (CCF-STTG1 [2]): 3 µM; cytotoxicity to CCF-STTG1 cell lines (in words) (CCF-STTG1 [2]; Temodar-resistant CCF-STTG1): greatest toxicity; IC50 (SW1088; Homo sapiens, SW1088, read-out: IC50 (μM) SW1088): 1.2 µM; LD50 (SW1088; SW-1088 astrocytoma cells): 0.3 μg/ml and 1.2 μM; IC50 (MCF10A): 1.7 µM; IC50 (MCF7): 3.2 µM; IC50 (OVCAR-3): 4.3 µM; IC50 (U251): 2.5 µM; IC50 (SVGp12): 1.6 µM
Cn1nnc2c(C(N)=O)ncn2c1=O [Temodar ®, Temozolomide, reference compound]	> 100	> 100		10 to 31.6	> 100	IC50 (WT/SH-SY5Y): 103 µM; IC50 (U87-MG): 13.6 µM; IC50 (CCF-STTG1 [2]): 306 µM; IC50 (SW1088; SW1088, human astrocytoma or glioblastoma cell line, read-out: IC50 (μM) SW1088): 29.5 µM; IC50 (C282Y/SH-SY5Y): 92 µM; IC50 (U251): 47.2 µM
CCN1C(=O)C(=C/C=C/c2ccccc2)C(=O)N(CC)C1=O [DDD00125643]	1 to 10		1 to 10	1 to 10	10 to 31.6	
CCN1C(=O)NC(=O)/C(=C\C=C\c2ccco2)C1=O [DDD00124808]	10 to 31.6	1 to 10	10 to 31.6	10 to 31.6	10 to 31.6	
Cc1c2oc3c(C)ccc(C(=O)N[C@@H]4C(=O)N[C@H](C(C)C)C(=O)N5CCC[C@H]5C(=O)N(C)CC(=O)N(C)[C@@H](C(C)C)C(=O)O[C@@H]4C)c3nc-2c(C(=O)N[C@@H]2C(=O)N[C@H](C(C)C)C(=O)N3CCC[C@H]3C(=O)N(C)CC(=O)N(C)[C@@H](C(C)C)C(=O)O[C@@H]2C)c(N)c1=O [actinomycin D, reference compound] (I: T[dV]P[Sar][NMeV] / II: T[dV]P[Sar][NMeV]; ester I:1-I:C, II:1-II:C; linker I:N-II:N via Actinocin(9to1))						percentage of apoptotic cells (CCF-STTG1 cells): 47.8±0.04%
CCN1C(=O)C(=C/C=C/c2ccccc2)C(=O)N(CC)C1=S [DDD00124821]	10 to 31.6	10 to 31.6	31.6 to 100	31.6 to 100	> 100	
O=C1NC(=O)C(=C/C=C/c2ccco2)C(=O)N1 [DDD00124807]	10 to 31.6	1 to 10	10 to 31.6	10 to 31.6	10 to 31.6	
